From patent publication US7326686B2, “Compounds and methods for regulating cell adhesion” (Adherex Inc., priority 1997, dated 2008)
Each block holds one compound with its values, some of them ahead of it. Where no end group is shown, it is not given here.

Tests used:
[1] = test system: Schwann cell-astrocyte adhesion; test: Schwann cell-astrocyte adhesion assay (Dil-labelled Schwann cells on astrocyte monolayer, shaking platform 30 min); assay type: cell-based, rat
Description: The effect of a modulating agent on Schwann cell adhesion to astrocytes may generally be evaluated using a cell adhesion assay. Briefly, Schwann cells fluorescently labeled with Di-I may be plated onto an astrocytic surface (e.g., a glass coverslip coated with a monolayer of astrocytes) and incubated on a shaking platform (e.g., 25 rpm for 30 minutes) in the presence and absence of modulating agent (e.g., LRAHAVDING (SEQ ID NO: 21) at a concentration of 1 mg/mL). Cells may then be washed (e.g., in Hanks medium) to remove non-attached cells. The attached cells may then be fixed and counted (e.g., using a fluorescent microscope). In general, 1 mg/mL of a modulating agent results in an increase or decrease in cell adhesion of at least 50%. This assay evaluates the effect of a modulating agent on N-cadherin mediated cell adhesion.
In order to test whether the migratory behavior of Schwann cells on different cell types was a function of adhesivity to the substratum, Dil-labeled Schwann cells were plated onto either astrocytic, fibroblasts, Schwann cell or laminin surfaces. 20,000 Dil-labeled Schwann cells were placed in a 15 mm diameter well in 0.5 ml of medium over a 13 mm glass coverslip coated with laminin, or a complete monolayer of astrocytes, fibroblasts or Schwann cells and then placed onto a shaking platform (25 rpm) for 30 minutes in an incubator. The coverslips were washed three times in Hanks after 30 minutes to remove any non-attached cells and the remainder were fixed for 20 minutes in 4% paraformaldehyde. The number of Dil-labeled Schwann cells that were attached to the coverslip were counted using a Leitz Diaplan fluorescent microscope under rhodamine optics.
In order to reduce extracellular calcium, DMEM was replaced by S-MEM (Joklik's modification; Gibco) with 0.2 mM calcium chloride added or the calcium buffer EGTA (Sigma) was employed. Adhesion assays in the absence of external calcium were performed using Schwann cells and astrocytes. Either a low calcium solution (S-MEM in place of DMEM with 0.2 mM calcium chloride) or a calcium buffer (EGTA in a normal DMEM medium) was used in these assays. […] EGTA concentrations less than 1.3 mM had little effect upon Schwann cell migration whereas those above 1.8 mM caused disruption of the astrocytic monolayer (data not shown). Adhesion of Schwann cells to astrocytes in the presence of the standard DMEM based medium was taken as the control and assigned the normalized value of 1.0±0.03. Low calcium solutions reduced intercellular adhesion to 0.47±0.09 and the addition of 1.6 mM EGTA to DMEM reduced adhesion to 0.39±0.05 (FIG. 10A). […]

[2] = test system: Schwann cell migration on astrocytes; test: Micro-inverted-coverslip migration assay on astrocyte monolayers; assay type: cell-based, rat
Description: Schwann cell migration may generally be evaluated using a micro-inverted-coverslip assay. In this assay, a dense Schwann cell culture is established on coverslip fragments and Schwann cell migration away from the fragment edge is measured. Briefly, Schwann cells fluorescently labeled with Di-I may be plated on polylysine- and laminin-coated fragments of a glass coverslip and allowed to bind to the surface for 16-18 hours. Cells may then be washed (e.g., in Hanks medium) to remove non-attached cells, and then inverted, with cells facing downward onto an astrocyte-coated surface. Cultures are then incubated further for 2 days in the presence or absence of modulating agent (e.g., LRAHAVDING (SEQ ID NO: 21) at a concentration of 1 mg/mL) and fixed. The maximum migration distance from the edge of the coverslip fragment may then be measured. At a level of 1 mg/mL, modulating agent results in an increase or decrease in the maximum migration distance of at least 50%. This assay evaluates the effect of a modulating agent on N-cadherin mediated cell adhesion.
In order to assess the rates of Schwann cell migration on different surfaces, the micro-inverted-coverslip migration assay was employed. This is a variation of the technique first described by Fok-Seang et al., Dev. Biol. 171:1-15, 1995. Schwann cells fluorescently labeled with Di-I (25 μg/ml) were evenly plated onto polylysine and laminin coated fragments of glass coverslip (1×2 mm). After 16-18 hours, the pieces of glass coated with Di-I labeled Schwann cells were dipped into Hanks three times to remove any loosely attached cells and then inverted with cells facing downwards onto laminin-coated tissue culture surfaces or onto cell monolayers. These cultures were then incubated for a further two days and fixed for 20 minutes with 4% paraformaldehyde. The maximum migration distance was measured, and the number of cells in bands of 0.1 mm progressing outwards from the edge of the coverslip were counted.
In this assay, a dense Schwann cell culture is established on coverslip fragments and their migration away from its edge measured. The assay therefore measures the ability of Schwann cells to migrate on a surface, and their ability to migrate away from a confluent Schwann cell monolayer. The migration front of the foremost cells was measured, and the number of cells against distance of migration plotted. Schwann cell-laden fragments were placed on laminin to give a baseline migration rate on a favorable defined surface, and laminin controls were done for comparison on each assay.

[3] = peptide 1 mg/ml, adhesion in the absence of peptide = 1.0±0.05, mean±S.E.M.

Compound: LRAHGVDING-NH2
Schwann cell-astrocyte adhesion, normalized [1, 3]: 0.78±0.10

Compound: MRAHAVDING-NH2
Schwann cell-astrocyte adhesion, normalized [1, 3]: 0.39±0.04

concentrations causing disruption of the astrocytic monolayer ([2]; data not shown): above 1.8 mM
Compound: O=C(O)CN(CCOCCOCCN(CC(=O)O)CC(=O)O)CC(=O)O [EGTA]
Schwann cell-astrocyte adhesion, normalized ([1]; 1.6 mM EGTA added to DMEM, standard DMEM control = 1.0±0.03): 0.39±0.05
extent of Schwann cell migration upon astrocyte monolayers ([2]; EGTA 1.6 mM, control migration 0.25±0.03): 0.86 mm
concentrations with little effect upon Schwann cell migration ([2]; data not shown): less than 1.3 mM
optimal concentration for Schwann cell migration ([2]; various concentrations of EGTA tested (data not shown)): 1.6 mM

Compound: LRAHAVDING-NH2
Schwann cell-astrocyte adhesion, normalized [1, 3]: 0.38±0.07
